Measured values: US9023876B2, “Compounds and methods for regulating integrins” (Adhaere Pharmaceuticals, Inc., priority 2010, dated 2015)

Columns and labels:
murine neutrophils = test: Neutrophil chemotaxis assay in Zigmond chamber, fMLP gradient; format: cell-based, mouse; conditions: vs DMSO
Method: Neutrophil chemotaxis on 2D surfaces was performed using Zigmond chamber (Neuro Probe) as described on acid cleaned glass or Fg coated glass coverslips. Cell migration was allowed in a gradient of […] bacterial peptide formyl-methionyl-leucyl-phenylalanine (fMLP, Sigma), in the absence or presence of leukadherins ([…]). Cell migration was recorded at every 30 sec interval for a period of 25 min using a Nikon Eclipse 90i inverted microscope. Images were acquired with a Nikon DS camera using a PLAN APO 20X differential interference contrast (DIC) microscopy objective and captured into Nikon Imaging software. Analysis of neutrophil migration was performed with the motile population that had moved more than 10 μm using ImageJ software (NIH, USA) with manual cell tracking using the Ibidi chemotaxis and migration tool plugin for ImageJ. Migration velocity and the total displacement (distance from origin) were also analyzed. Quantitation was performed using at least 50 independent cells per condition from at least three independent experiments.
Leukocyte chemotaxis on 2D surfaces involves integrin-mediated sequential adhesion and de-adhesion steps [77]. […] To test if increased cell-adhesion by leukaderins affects cell migration, we used murine neutrophils chemotaxing in response to a gradient of chemokine peptide formyl-Met-Leu-Phe (fMLP). […]

mice = test: Anti-glomerular basement membrane (anti-GBM) nephritis model; format: in vivo, mouse
From the text: To determine whether CD11b/CD18 agonists have any therapeutic advantages over antagonists, we performed a head-to-head comparison between a well-characterized CD11b/CD18 antagonist (anti-CD11b antibody M1/70, [82]) and LA1 using an established mouse model of kidney disease, the anti-glomerular basement membrane (anti-GBM) nephritis. This model is characterized by neutrophil infiltration that mediates urinary protein loss, including albumin. In line with an important role for CD11b in this disease, CD11b^−/− mice and anti-CD11b mAb treated rats show decreased leukocyte infiltration and a protection from proteinuria. Here, induction of disease in mice led to peak influx of neutrophils and maximal proteinuria at day 3.

O=C(O)c1ccc(-c2ccc(/C=C3\SC(=S)N(Cc4ccccc4)C3=O)o2)cc1 [LA1]
lateral migration of neutrophils (murine neutrophils): significant decrease
migration velocity of neutrophils (murine neutrophils): significant decrease
number of infiltrated neutrophils (neutrophil influx) (mice): significant and maximal decrease
proteinuria (mice): significant and maximal decrease
